Data from ChEMBL document CHEMBL5042543, “Bridged Piperidine Analogues of a High Affinity Naphthalene-Based P2Y14R Antagonist” (J Med Chem, 2022).
Values after ≈ are worked out from the molar mass of the structure shown. Active and inactive are the calls of the source. No cut-off for these calls is given here.

Experiments:
[1] = target: Kappa-type opioid receptor (Homo sapiens, UniProt P41145); assay: Inhibition of KOR (unknown origin) assessed as binding constant
[2] = Distribution coefficient, logD of compound at pH 7.4 by HPLC analysis; type: physicochemical; settings: octanol/water
[3] = target: Sigma intracellular receptor 2 (Homo sapiens, UniProt Q5BJF2); assay: Inhibition of sigma 2 receptor (unknown origin) assessed as binding constant
Chain of Sigma intracellular receptor 2 (Q5BJF2 whole entry): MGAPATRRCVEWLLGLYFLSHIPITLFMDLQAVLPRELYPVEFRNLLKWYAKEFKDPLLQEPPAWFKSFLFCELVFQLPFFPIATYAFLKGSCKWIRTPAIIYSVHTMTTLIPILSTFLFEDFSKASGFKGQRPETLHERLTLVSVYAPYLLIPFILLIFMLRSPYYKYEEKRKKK

Mus musculus [4] = assay: Reversal of CCI-induced mechano-allodynia in Hsd:ICR (CD-1) mouse model of neuropathic pain at 10 micromol/kg, ip measured after 5 hrs; type: functional, organism-based; settings: dose 10.0 µmol/kg
Mus musculus [5] = assay: Antiinflammatory activity in C57BL/6J mouse model of ovalbumin/Aspergillus-induced allergic asthma assessed as reduction in macrophage counts in BALF at 10 mg/kg, ip administered 30 mins prior to allergen challenge and measured after 16 days; type: functional, organism-based; settings: time 16.0 day
Mus musculus [6] = assay: Antiinflammatory activity in C57BL/6J mouse model of ovalbumin/Aspergillus-induced allergic asthma assessed as reduction in eosinophil counts in BALF at 10 mg/kg, ip administered 30 mins prior to allergen challenge and measured after 16 days; type: functional, organism-based; settings: time 16.0 day
Mus musculus [7] = assay: Reversal of CCI-induced mechano-allodynia in Hsd:ICR (CD-1) mouse model of neuropathic pain at 10 micromol/kg, ip measured after 3 hrs; type: functional, organism-based; settings: dose 10.0 µmol/kg
Mus musculus [8] = assay: Antiinflammatory activity in C57BL/6J mouse model of ovalbumin/Aspergillus-induced allergic asthma assessed as reduction in neutrophil counts in BALF at 10 mg/kg, ip administered 30 mins prior to allergen challenge and measured after 16 days; type: functional, organism-based; settings: time 16.0 day
Mus musculus [9] = assay: Antiinflammatory activity in C57BL/6J mouse model of ovalbumin/Aspergillus-induced allergic asthma assessed as reduction in allergic inflammation at 10 mg/kg, ip administered 30 mins prior to allergen challenge and measured after 16 days; type: functional, organism-based; settings: time 16.0 day
[10] = Stability in mouse liver microsomes assessed as half life; type: ADME, Microsome
[11] = Toxicity in Hsd:ICR (CD-1) mouse at 10 micromol/kg, ip; settings: in vivo, dose 10 µmol/kg
[12] = Stability in rat liver microsomes assessed as half life; type: ADME, Microsome
[13] = Plasma protein binding in human assessed as bound fraction; type: ADME, cell-free
[14] = Stability in mouse plasma assessed as compound remaining after 120 mins; type: ADME, cell-free; settings: 2 h
[15] = Stability of the compound in simulated intestinal fluid assessed as parent compound remaining at 120 mins; type: ADME; settings: simulated gi fluid, 2 h
[16] = Plasma protein binding in rat assessed as bound fraction; type: ADME, cell-free
[17] = Stability of the compound in simulated gastric fluid assessed as parent compound remaining at 120 mins by NMR analysis; type: ADME; settings: simulated gi fluid, 2 h
[18] = Stability in rat plasma assessed as compound remaining after 120 mins; type: ADME, cell-free; settings: 2 h
[19] = Stability in human liver microsomes assessed as half life; type: ADME, Microsome
[20] = Plasma protein binding in mouse assessed as bound fraction; type: ADME, cell-free
[21] = Half life in Wistar rat at 0.5 mg/kg, iv; type: ADME, organism-based; settings: in vivo
[22] = Half life in Wistar rat at 1 mg/kg, ip; type: ADME, organism-based; settings: in vivo
[23] = Aqueous solubility of the compound at pH 4; settings: buffer
HepG2 = assay: Cytotoxicity against human HepG2 cells; type: toxicity, cell-based
Mus musculus [24] = assay: Antiinflammatory activity in C57BL/6J mouse model of ovalbumin/Aspergillus-induced allergic asthma assessed as reduction in recruitment of immune cells into lungs at 10 mg/kg, ip administered 30 mins prior to allergen challenge and measured after 16 days; type: functional, organism-based; settings: time 16.0 day
[25] = Plasma protein binding in mouse assessed as compound remaining at 5 hrs; type: ADME, cell-free
liver carboxylesterase = target: T1, liver carboxylesterase (Sus scrofa, UniProt Q29550); assay: Stability of the compound in aqueous medium at pH 7.4 assessed as half life in presence of porcine liver esterase; type: physicochemical; settings: pig
T1 sequence (Q29550 whole entry): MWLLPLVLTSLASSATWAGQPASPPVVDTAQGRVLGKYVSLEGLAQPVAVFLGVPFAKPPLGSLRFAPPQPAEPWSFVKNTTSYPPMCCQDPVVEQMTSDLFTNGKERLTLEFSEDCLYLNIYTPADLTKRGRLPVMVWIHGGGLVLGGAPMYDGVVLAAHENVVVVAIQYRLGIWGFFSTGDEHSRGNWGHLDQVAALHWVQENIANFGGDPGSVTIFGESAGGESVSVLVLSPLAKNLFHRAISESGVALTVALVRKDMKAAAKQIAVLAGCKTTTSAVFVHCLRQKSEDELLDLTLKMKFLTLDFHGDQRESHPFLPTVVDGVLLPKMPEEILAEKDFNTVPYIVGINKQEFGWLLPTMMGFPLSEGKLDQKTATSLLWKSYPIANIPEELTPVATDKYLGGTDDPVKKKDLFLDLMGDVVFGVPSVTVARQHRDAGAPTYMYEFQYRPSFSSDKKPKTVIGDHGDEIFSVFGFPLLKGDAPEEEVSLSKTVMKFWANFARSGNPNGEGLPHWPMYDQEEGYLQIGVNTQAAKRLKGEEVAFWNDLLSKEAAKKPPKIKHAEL

[26] = Plasma protein binding in rat assessed as compound remaining at 5 hrs; type: ADME, cell-free
[27] = Prodrug conversion in aqueous medium at pH 7.4 assessed as conversion of 4-(4-((1S,4S,5S)-2-(Ethoxycarbonyl)-2-azabicyclo[2.2.1]heptan-5-yl)phenyl)-7-(4-(trifluoro-methyl)phenyl)-2-naphthoic acid at 72 hrs by HPLC analysis; type: ADME; settings: buffer, pH 7.4, 72 h
[28] = target: T2, Muscarinic acetylcholine receptor M1 (Homo sapiens, UniProt P11229); assay: Inhibition of muscarinic M1 receptor (unknown origin) assessed as binding constant
T2 sequence (P11229 whole entry): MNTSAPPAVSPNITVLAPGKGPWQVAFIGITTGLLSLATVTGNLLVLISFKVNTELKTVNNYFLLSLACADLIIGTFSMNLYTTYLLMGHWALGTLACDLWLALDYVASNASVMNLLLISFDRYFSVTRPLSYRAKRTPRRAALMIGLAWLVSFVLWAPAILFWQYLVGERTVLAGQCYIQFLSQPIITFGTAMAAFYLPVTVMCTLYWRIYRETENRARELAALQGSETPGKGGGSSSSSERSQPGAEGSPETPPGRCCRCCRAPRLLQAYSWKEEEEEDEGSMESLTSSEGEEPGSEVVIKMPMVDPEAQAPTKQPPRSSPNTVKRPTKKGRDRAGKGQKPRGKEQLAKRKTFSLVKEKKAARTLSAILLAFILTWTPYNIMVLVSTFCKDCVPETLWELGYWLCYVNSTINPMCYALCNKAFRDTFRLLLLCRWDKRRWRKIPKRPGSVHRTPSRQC

[29] = target: Sodium-dependent serotonin transporter (Homo sapiens, UniProt P31645); assay: Inhibition of SERT receptor (unknown origin) assessed as binding constant
Chain of Sodium-dependent serotonin transporter (P31645 whole entry): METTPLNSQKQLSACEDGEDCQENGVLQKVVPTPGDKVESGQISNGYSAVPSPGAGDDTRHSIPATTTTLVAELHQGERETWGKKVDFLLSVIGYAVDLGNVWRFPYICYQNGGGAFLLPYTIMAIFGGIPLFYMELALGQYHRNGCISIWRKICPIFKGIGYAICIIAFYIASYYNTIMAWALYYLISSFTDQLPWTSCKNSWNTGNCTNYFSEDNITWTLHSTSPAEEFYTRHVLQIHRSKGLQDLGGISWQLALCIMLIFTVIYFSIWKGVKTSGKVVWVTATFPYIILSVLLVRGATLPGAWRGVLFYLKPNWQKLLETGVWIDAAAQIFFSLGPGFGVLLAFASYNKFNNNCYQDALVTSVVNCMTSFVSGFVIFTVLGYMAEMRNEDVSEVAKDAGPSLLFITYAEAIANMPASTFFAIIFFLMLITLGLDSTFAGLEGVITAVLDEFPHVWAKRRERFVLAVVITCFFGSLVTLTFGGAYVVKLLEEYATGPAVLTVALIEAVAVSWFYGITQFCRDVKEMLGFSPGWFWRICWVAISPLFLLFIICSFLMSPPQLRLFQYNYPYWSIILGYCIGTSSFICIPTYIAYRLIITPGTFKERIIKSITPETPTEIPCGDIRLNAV

Mus musculus [30] = assay: Antiinflammatory activity in C57BL/6J mouse model of ovalbumin/Aspergillus-induced allergic asthma assessed as reduction in recruitment of neutrophils into airway at 10 mg/kg, ip administered 30 mins prior to allergen challenge and measured after 16 days; type: functional, organism-based; settings: time 16.0 day
Mus musculus [31] = assay: Antiinflammatory activity in C57BL/6J mouse model of ovalbumin/Aspergillus-induced allergic asthma assessed as reduction in recruitment of lymphocytes into airway at 10 mg/kg, ip administered 30 mins prior to allergen challenge and measured after 16 days; type: functional, organism-based; settings: time 16.0 day
Mus musculus [32] = assay: Antiinflammatory activity in C57BL/6J mouse model of ovalbumin/Aspergillus-induced allergic asthma assessed as reduction in recruitment of eosinophils into airway at 10 mg/kg, ip administered 30 mins prior to allergen challenge and measured after 16 days; type: functional, organism-based; settings: time 16.0 day

Chain of Kappa-type opioid receptor (P41145 whole entry): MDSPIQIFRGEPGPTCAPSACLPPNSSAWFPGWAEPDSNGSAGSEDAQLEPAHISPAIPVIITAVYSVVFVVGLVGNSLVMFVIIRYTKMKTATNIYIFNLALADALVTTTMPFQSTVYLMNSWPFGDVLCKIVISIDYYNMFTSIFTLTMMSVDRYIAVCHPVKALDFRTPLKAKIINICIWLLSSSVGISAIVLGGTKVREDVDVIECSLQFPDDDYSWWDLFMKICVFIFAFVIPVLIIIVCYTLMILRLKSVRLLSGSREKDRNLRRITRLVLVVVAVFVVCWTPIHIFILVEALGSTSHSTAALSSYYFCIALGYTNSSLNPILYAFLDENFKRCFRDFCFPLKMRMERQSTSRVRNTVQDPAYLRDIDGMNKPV

Row | SMILES | logD ([2]; read-out: logD) | Ki [3] | t1/2 [10] | t1/2 [12] | PPB [13] | Stability [14] | Stability [15] | PPB [16] | Stability [17] | Stability [18] | t1/2 [19] | PPB [20] | half-life [21] | half-life [22] | IC50 (HepG2) | half-life (liver carboxylesterase) | Drug metabolism [27] | also measured
1 | O=C(O)c1cc(-c2ccc(C3CCNC3)cc2)c2ccc(-c3ccc(C(F)(F)F)cc3)cc2c1 (racemic) | 1.9 | 1.2 µM |  |  |  |  |  |  |  |  |  |  |  |  |  |  |  | Ki [1]: > 1 µM
2 | O=C(O)c1cc(-c2ccc([C@H]3C[C@H]4C[C@@H]3CN4)cc2)c2ccc(-c3ccc(C(F)(F)F)cc3)cc2c1 [listing 1 of 2 here] |  |  |  |  |  |  |  |  |  |  |  |  |  |  |  |  |  | Activity (Mus musculus [4]): inactive; Activity (Mus musculus [5]): inactive; Activity (Mus musculus [6]): Active; Activity (Mus musculus [7]): Active; Activity (Mus musculus [8]): Active; Activity (Mus musculus [9]): Active
3 | O=C(O)c1cc(-c2ccc([C@H]3C[C@H]4C[C@@H]3CN4)cc2)c2ccc(-c3ccc(C(F)(F)F)cc3)cc2c1 [listing 2 of 2 here] |  | 0.71 µM | 4.05 h | 1.52 h | 87.98% | 100% | 99.1% | 99.79% | 100% | 82.8% | 4.67 h | 99.76% | 7.24 h | 8.94 h | 11 µM |  |  | Activity [11]: Non-Toxic; logD [2]: 1.9; solubility [23]: 1.22 µg/mL (≈ 2.5 µM)
4 | O=C(O)c1cc(-c2ccc([C@@H]3C[C@@H]4C[C@H]3NC4=O)cc2)c2ccc(-c3ccc(C(F)(F)F)cc3)cc2c1 |  | 2.1 µM | > 16.67 h | 1.49 h | 98.89% | 74.1% | 100% | 96.18% | 59.3% | 74.7% | 12.5 h | 99.74% | 2.11 h | 4.59 h | 9.34 µM |  |  | Activity (Mus musculus [24]): Active
5 | CN(C)C(=O)COC(=O)c1cc(-c2ccc([C@H]3C[C@H]4C[C@@H]3CN4)cc2)c2ccc(-c3ccc(C(F)(F)F)cc3)cc2c1 |  | 0.39 µM |  |  | 99.7% |  |  |  |  |  |  |  |  |  |  | > 72 h | 59% | Fu [25]: 0%; Fu [26]: 0.72%; Ki [28]: > 1 µM; Ki [29]: > 1 µM
6 | CCOC(=O)N1C[C@H]2C[C@@H]1C[C@@H]2c1ccc(-c2cc(C(=O)OCC(=O)N(C)C)cc3cc(-c4ccc(C(F)(F)F)cc4)ccc23)cc1 | 6 |  |  |  |  |  |  |  |  |  |  |  |  |  |  | > 72 h | 3% | Activity (Mus musculus [30]): Active; Activity (Mus musculus [31]): Active; Activity (Mus musculus [32]): Active
